Measurements reported in patent publication US20240018120A1, “MAGL INHIBITORS” (H. LUNDBECK A/S, priority 2020, published 2024).

Molecular target: T1, MAGL (Homo sapiens, UniProt Q99685)
T1 sequence (Q99685 1-303): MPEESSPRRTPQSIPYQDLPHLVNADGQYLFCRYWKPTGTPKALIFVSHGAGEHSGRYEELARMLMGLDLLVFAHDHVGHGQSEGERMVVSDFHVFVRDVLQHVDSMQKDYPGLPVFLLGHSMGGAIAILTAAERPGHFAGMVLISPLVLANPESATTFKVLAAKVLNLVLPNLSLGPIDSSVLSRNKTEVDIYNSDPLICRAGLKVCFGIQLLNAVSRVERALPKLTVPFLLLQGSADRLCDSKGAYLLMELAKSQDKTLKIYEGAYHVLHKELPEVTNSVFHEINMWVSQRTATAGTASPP
Assay: In vitro competitive activity-based protein profiling, PC3 human cell membrane proteomes
Format: biochemical
Design: endogenous in cells; host or cells: PC3 human cells (membrane proteome)
Settings: human PC3 membrane proteome
Experimental: PC3 human cell membrane proteomes (50 μL, 2.0 mg/mL total protein concentration) were preincubated with varying concentrations of inhibitors at 37° C. After 30 min, the ABPP probe JW912-Bodipy (1.0 μL, 50 μM in DMSO) was added and the mixture was incubated for 30 min at room temperature. Reactions were quenched with SDS loading buffer (15 μL-4×) and run on SDS-PAGE. Following gel imaging, serine hydrolase activity was determined by measuring fluorescent intensity of gel bands corresponding to MAGL using ImageJ 1.43u software. Intensities were converted to percent enzyme activity by normalizing to DMSO controls. IC50 values were determined by fitting percent enzyme activities to a non-linear regression, 4-parameter, sigmoidal dose response function in Prism GraphPad.

## O=C(Nc1cnoc1)[C@H]1CC12CCN(C(=O)OC(C(F)(F)F)C(F)(F)F)CC2 (single isomer, unassigned) [Example 14]
  IC50: 0.013 µM

## O=C(Nc1cnoc1)[C@@H]1CC12CCN(C(=O)OC(C(F)(F)F)C(F)(F)F)CC2 (single isomer, unassigned) [Example 15]
  IC50: 1 µM

## CP(C)(=O)c1ccc(NC(=O)C2CC23CCN(C(=O)OC(C(F)(F)F)C(F)(F)F)CC3)cn1 (single isomer, unassigned) [Example 21, 1,1,1,3,3,3-Hexafluoropropan-2-yl (R or S)-1-((6-(dimethylphosphoryl)pyridin-3-yl)carbamoyl)-6-azaspiro[2.5]octane-6-carboxylate]
  IC50: 0.317 µM

## O=C(Nc1ccncc1)C1CC12CCN(C(=O)OC(C(F)(F)F)C(F)(F)F)CC2 (single isomer, unassigned) [Example 23, 1,1,1,3,3,3-Hexafluoropropan-2-yl (R or S)-1-(pyridin-4-ylcarbamoyl)-6-azaspiro[2.5]octane-6-carboxylate]
  IC50: 0.2 µM

## O=C(NC(=O)C1CC12CCN(C(=O)OC(C(F)(F)F)C(F)(F)F)CC2)C1CCOCC1 (single isomer, unassigned) [Example 26, 1,1,1,3,3,3-Hexafluoropropan-2-yl (R or S)-1-((tetrahydro-2H-pyran-4-carbonyl)carbamoyl)-6-azaspiro[2.5]octane-6-carboxylate]
  IC50: 0.016 µM

## O=C(NC(=O)C1CC12CCN(C(=O)OC(C(F)(F)F)C(F)(F)F)CC2)C1CCOCC1 (single isomer, unassigned) [Example 27, 1,1,1,3,3,3-Hexafluoropropan-2-yl (R or S)-1-((tetrahydro-2H-pyran-4-carbonyl)carbamoyl)-6-azaspiro[2.5]octane-6-carboxylate]
  IC50: 0.056 µM

## O=C(Nc1ccc(-n2cccn2)nc1)C1CC12CCN(C(=O)OC(C(F)(F)F)C(F)(F)F)CC2 (single isomer, unassigned) [Example 30, 1,1,1,3,3,3-Hexafluoropropan-2-yl (R or S)-1-((6-(1H-pyrazol-1-yl)pyridin-3-yl)carbamoyl)-6-azaspiro[2.5]octane-6-carboxylate]
  IC50: 0.39 µM

## CNC(=O)c1ccc(NC(=O)C2CC23CCN(C(=O)OC(C(F)(F)F)C(F)(F)F)CC3)cn1 (single isomer, unassigned) [Example 32, 1,1,1,3,3,3-Hexafluoropropan-2-yl (R or S)-1-((6-(methylcarbamoyl)pyridin-3-yl)carbamoyl)-6-azaspiro[2.5]octane-6-carboxylate]
  IC50: 0.25 µM

## CNC(=O)c1ccc(NC(=O)C2CC23CCN(C(=O)OC(C(F)(F)F)C(F)(F)F)CC3)cn1 (single isomer, unassigned) [Example 33, 1,1,1,3,3,3-Hexafluoropropan-2-yl (R or S)-1-((6-(methylcarbamoyl)pyridin-3-yl)carbamoyl)-6-azaspiro[2.5]octane-6-carboxylate]
  IC50: 0.0022 µM

## COc1ccc(NC(=O)[C@@H]2CC23CCN(C(=O)OC(C(F)(F)F)C(F)(F)F)CC3)cn1 (single isomer, unassigned) [Example 36]
  IC50: 0.0051 µM

## COc1ccc(NC(=O)[C@H]2CC23CCN(C(=O)OC(C(F)(F)F)C(F)(F)F)CC3)cn1 (single isomer, unassigned) [Example 37]
  IC50: 0.0011 µM

## Cc1ncc(NC(=O)C2CC23CCN(C(=O)OC(C(F)(F)F)C(F)(F)F)CC3)cn1 (single isomer, unassigned) [Example 102, 1,1,1,3,3,3-hexafluoropropan-2-yl (R or S)-1-((2-methylpyrimidin-5-yl)carbamoyl)-6-azaspiro[2.5]octane-6-carboxylate]
  IC50: 0.15 µM

## Cc1ncc(NC(=O)C2CC23CCN(C(=O)OC(C(F)(F)F)C(F)(F)F)CC3)cn1 (single isomer, unassigned) [Example 103, 1,1,1,3,3,3-hexafluoropropan-2-yl (R or S)-1-((2-methylpyrimidin-5-yl)carbamoyl)-6-azaspiro[2.5]octane-6-carboxylate]
  IC50: 0.0033 µM

## Cc1ccc(NC(=O)[C@@H]2CC23CCN(C(=O)OC(C(F)(F)F)C(F)(F)F)CC3)nn1 (single isomer, unassigned) [Example 105]
  IC50: 0.1 µM

## Cc1ccc(NC(=O)[C@H]2CC23CCN(C(=O)OC(C(F)(F)F)C(F)(F)F)CC3)nn1 (single isomer, unassigned) [Example 106]
  IC50: 0.001 µM

## O=C(Nc1ccnnc1)C1CC12CCN(C(=O)OC(C(F)(F)F)C(F)(F)F)CC2 (single isomer, unassigned) [Example 108, 1,1,1,3,3,3-hexafluoropropan-2-yl (R or S)-1-(pyridazin-4-ylcarbamoyl)-6-azaspiro[2.5]octane-6-carboxylate]
  IC50: 0.013 µM

## O=C(Nc1ccnnc1)C1CC12CCN(C(=O)OC(C(F)(F)F)C(F)(F)F)CC2 (single isomer, unassigned) [Example 109, 1,1,1,3,3,3-hexafluoropropan-2-yl (R or S)-1-(pyridazin-4-ylcarbamoyl)-6-azaspiro[2.5]octane-6-carboxylate]
  IC50: 0.57 µM

## Cc1cnc(NC(=O)C2CC23CCN(C(=O)OC(C(F)(F)F)C(F)(F)F)CC3)cn1 (single isomer, unassigned) [Example 111, 1,1,1,3,3,3-hexafluoropropan-2-yl (R or S)-1-((5-methylpyrazin-2-yl)carbamoyl)-6-azaspiro[2.5]octane-6-carboxylate]
  IC50: 0.074 µM

## CN1CCC(NC(=O)C2CC23CCN(C(=O)OC(C(F)(F)F)C(F)(F)F)CC3)CC1 (single isomer, unassigned) [Example 114, 1,1,1,3,3,3-hexafluoropropan-2-yl (R or S)-1-((1-methylpiperidin-4-yl)carbamoyl)-6-azaspiro[2.5]octane-6-carboxylate]
  IC50: 2.6 µM

## CN1CCC(NC(=O)C2CC23CCN(C(=O)OC(C(F)(F)F)C(F)(F)F)CC3)CC1 (single isomer, unassigned) [Example 115, 1,1,1,3,3,3-hexafluoropropan-2-yl (R or S)-1-((1-methylpiperidin-4-yl)carbamoyl)-6-azaspiro[2.5]octane-6-carboxylate]
  IC50: 0.56 µM

## O=C(NCC1CCOCC1)[C@@H]1CC12CCN(C(=O)OC(C(F)(F)F)C(F)(F)F)CC2 (single isomer, unassigned) [Example 118]
  IC50: 0.29 µM

## O=C(OC(C(F)(F)F)C(F)(F)F)N1CCC2(CC1)CC2C(=O)N1CCOCC1 (single isomer, unassigned) [Example 120, 1,1,1,3,3,3-hexafluoropropan-2-yl (R or S)-1-(morpholine-4-carbonyl)-6-azaspiro[2.5]octane-6-carboxylate]
  IC50: 0.3 µM

## O=C(OC(C(F)(F)F)C(F)(F)F)N1CCC2(CC1)CC2C(=O)N1CCOCC1 (single isomer, unassigned) [Example 121, 1,1,1,3,3,3-hexafluoropropan-2-yl (R or S)-1-(morpholine-4-carbonyl)-6-azaspiro[2.5]octane-6-carboxylate]
  IC50: 0.42 µM

## N#CC1CCN(C(=O)C2CC23CCN(C(=O)OC(C(F)(F)F)C(F)(F)F)CC3)CC1 (single isomer, unassigned) [Example 123, 1,1,1,3,3,3-hexafluoropropan-2-yl (R or S)-1-(4-cyanopiperidine-1-carbonyl)-6-azaspiro[2.5]octane-6-carboxylate]
  IC50: 0.16 µM

## N#CC1CCN(C(=O)C2CC23CCN(C(=O)OC(C(F)(F)F)C(F)(F)F)CC3)CC1 (single isomer, unassigned) [Example 124, 1,1,1,3,3,3-hexafluoropropan-2-yl (R or S)-1-(4-cyanopiperidine-1-carbonyl)-6-azaspiro[2.5]octane-6-carboxylate]
  IC50: 0.67 µM

## Cn1ccc(NC(=O)C2CC23CCN(C(=O)OC(C(F)(F)F)C(F)(F)F)CC3)n1 (single isomer, unassigned) [Example 126, 1,1,1,3,3,3-hexafluoropropan-2-yl (R or S)-1-((1-methyl-1H-pyrazol-3-yl)carbamoyl)-6-azaspiro[2.5]octane-6-carboxylate]
  IC50: 0.23 µM

## CC1(NC(=O)C2CC23CCN(C(=O)OC(C(F)(F)F)C(F)(F)F)CC3)CCOCC1 (single isomer, unassigned) [Example 133, 1,1,1,3,3,3-hexafluoropropan-2-yl (R or S)-1-((4-methyltetrahydro-2H-pyran-4-yl)carbamoyl)-6-azaspiro[2.5]octane-6-carboxylate]
  IC50: 1.6 µM

## Cn1nccc1NC(=O)C1CC12CCN(C(=O)OC(C(F)(F)F)C(F)(F)F)CC2 (single isomer, unassigned) [Example 136, 1,1,1,3,3,3-hexafluoropropan-2-yl (R or S)-1-((1-methyl-1H-pyrazol-5-yl)carbamoyl)-6-azaspiro[2.5]octane-6-carboxylate]
  IC50: 0.34 µM

## O=C(Nc1nccs1)C1CC12CCN(C(=O)OC(C(F)(F)F)C(F)(F)F)CC2 (single isomer, unassigned) [Example 139, 1,1,1,3,3,3-hexafluoropropan-2-yl (R or S)-1-(thiazol-2-ylcarbamoyl)-6-azaspiro[2.5]octane-6-carboxylate]
  IC50: 0.11 µM

## O=C(Nc1ccccc1)[C@H]1CC12CCN(C(=O)OC(C(F)(F)F)C(F)(F)F)CC2 (single isomer, unassigned) [Example 141]
  IC50: 0.00091 µM

## O=C(Nc1ccccc1)[C@@H]1CC12CCN(C(=O)OC(C(F)(F)F)C(F)(F)F)CC2 (single isomer, unassigned) [Example 142]
  IC50: 0.13 µM
